Results on four compounds are retold here after ChEMBL document CHEMBL4033677, “Design and synthesis of pyrazolo[3,4-d]pyrimidines: Nitric oxide releasing compounds targeting hepatocellular carcinoma” (Bioorg Med Chem, 2017).

Format in all cases: functional
Assay [1] relates to MOLT-4. As to the kind of experiment: Growth inhibition of human MOLT4 cells assessed as cell growth at 10^-5 M incubated for 48 hrs by sulforhodamine B assay relative to control. To be noted: MOLT-4, 48 h, read-out: Activity. Background: In SRB staining, fixed cells bind dye roughly in proportion to their protein.
Assay [2] concerns SR. The assay is described as follows: Growth inhibition of human SR cells assessed as cell growth at 10^-5 M incubated for 48 hrs by sulforhodamine B assay relative to control. To be noted: read-out: Activity.
Assay [3] concerns NCI-H226. The assay is described as follows: Growth inhibition of human NCI-H226 cells assessed as cell growth at 10^-5 M incubated for 48 hrs by sulforhodamine B assay relative to control. To be noted: NCI-H226, 48 h, read-out: Activity.
The subject of assay [4] is NCI-H23. As to the kind of experiment: Growth inhibition of human NCI-H23 cells assessed as cell growth at 10^-5 M incubated for 48 hrs by sulforhodamine B assay relative to control. To be noted: NCI-H23, 48 h, read-out: Activity.
Assay [5] deals with NCI-H460. The assay is described as follows: Growth inhibition of human NCI-H460 cells assessed as cell growth at 10^-5 M incubated for 48 hrs by sulforhodamine B assay relative to control. To be noted: NCI-H460, 48 h, read-out: Activity.
The test system of assay [6] is COLO 205. The assay is described as follows: Growth inhibition of human COLO205 cells assessed as cell growth at 10^-5 M incubated for 48 hrs by sulforhodamine B assay relative to control. To be noted: COLO 205, 48 h, read-out: Activity.
Assay [7] relates to HCC 2998. The assay is described as follows: Growth inhibition of human HCC2998 cells assessed as cell growth at 10^-5 M incubated for 48 hrs by sulforhodamine B assay relative to control. To be noted: HCC 2998, 48 h, read-out: Activity.
Assay [8] has as its system HCT-15. The assay is described as follows: Growth inhibition of human HCT15 cells assessed as cell growth at 10^-5 M incubated for 48 hrs by sulforhodamine B assay relative to control. To be noted: HCT-15, 48 h, read-out: Activity.
Assay [9] deals with KM12. The assay is described as follows: Growth inhibition of human KM12 cells assessed as cell growth at 10^-5 M incubated for 48 hrs by sulforhodamine B assay relative to control. To be noted: KM12, 48 h, read-out: Activity.
For assay [10], the system named is SW-620. As to the kind of experiment: Growth inhibition of human SW620 cells assessed as cell growth at 10^-5 M incubated for 48 hrs by sulforhodamine B assay relative to control. To be noted: SW-620, 48 h, read-out: Activity.
For assay [11], the system named is SNB-75. The assay is described as follows: Growth inhibition of human SNB75 cells assessed as cell growth at 10^-5 M incubated for 48 hrs by sulforhodamine B assay relative to control. To be noted: SNB-75, 48 h, read-out: Activity.
Assay [12] concerns Malme-3M. As to the kind of experiment: Growth inhibition of human MALME-3M cells assessed as cell growth at 10^-5 M incubated for 48 hrs by sulforhodamine B assay relative to control. To be noted: read-out: Activity.
Assay [13] deals with SK-MEL-5. The assay is described as follows: Growth inhibition of human SK-MEL-5 cells assessed as cell growth at 10^-5 M incubated for 48 hrs by sulforhodamine B assay relative to control. To be noted: SK-MEL-5, 48 h, read-out: Activity.
The test system of assay [14] is UACC-257. The assay is described as follows: Growth inhibition of human UACC257 cells assessed as cell growth at 10^-5 M incubated for 48 hrs by sulforhodamine B assay relative to control. To be noted: UACC-257, 48 h, read-out: Activity.
In assay [15] the test system is UACC-62. As to the kind of experiment: Growth inhibition of human UACC62 cells assessed as cell growth at 10^-5 M incubated for 48 hrs by sulforhodamine B assay relative to control. To be noted: UACC-62, 48 h, read-out: Activity.
Assay [16] has as its system NCI/ADR-RES. As to the kind of experiment: Growth inhibition of human NCI/ADR-RES cells assessed as cell growth at 10^-5 M incubated for 48 hrs by sulforhodamine B assay relative to control. To be noted: read-out: Activity.
Assay [17] relates to SK-OV-3. As to the kind of experiment: Growth inhibition of human SKOV3 cells assessed as cell growth at 10^-5 M incubated for 48 hrs by sulforhodamine B assay relative to control. To be noted: SK-OV-3, 48 h, read-out: Activity.
For assay [18], the system named is ACHN. The assay is described as follows: Growth inhibition of human ACHN cells assessed as cell growth at 10^-5 M incubated for 48 hrs by sulforhodamine B assay relative to control. To be noted: read-out: Activity.
Assay [19] deals with UO-31. As to the kind of experiment: Growth inhibition of human UO31 cells assessed as cell growth at 10^-5 M incubated for 48 hrs by sulforhodamine B assay relative to control. To be noted: UO-31, 48 h, read-out: Activity.
In assay [20] the test system is MCF7. As to the kind of experiment: Growth inhibition of human MCF7 cells assessed as cell growth at 10^-5 M incubated for 48 hrs by sulforhodamine B assay relative to control. To be noted: MCF7, 48 h, read-out: Activity.
For assay [21], the system named is Hs-578T. As to the kind of experiment: Growth inhibition of human Hs 578T cells assessed as cell growth at 10^-5 M incubated for 48 hrs by sulforhodamine B assay relative to control. To be noted: read-out: Activity.

In the case of `Cc1nc(Nc2ccc(OCCCBr)cc2)c2cnn(-c3ccccc3)c2n1`, the growth at 10 µM stood at 93.6% in assay [1]; 85.2% in [2]; 81.1% in assay [3]; 90.7% in assay [4]; 95.1% in assay [5]; 106% in assay [6]. Further, the growth at 10 µM was determined as 103% in assay [7]; 99.2% in [8]; 98.3% in assay [9]; 93.3% in assay [10]; 88.7% in assay [11]; 98.2% in assay [12]. Moreover, the growth at 10 µM in assay [13] was 96.2%; in [14], 94.4%; in assay [15], 86.2%; in assay [16], 92.1%; in assay [17], 82.9%; in [18], 103%. Besides, the values for the growth at 10 µM in assay [19], in [20] and in assay [21] were 88.2%, 82.4% and 82.6%, respectively.
Turning to `BrCCCOc1ccc(Nc2ncnc3c2cnn3-c2ccccc2)cc1`, the growth at 10 µM in assay [1] amounted to 83.6%; in [2], 82.6%; in assay [3] it was 84.1%; in [4], 91.5%; in assay [5], 107%; in [6], 103%. Further, the growth at 10 µM turned out to be 108% in assay [7]; 59.2% in assay [8]; 88.9% in [9]; 114% in assay [10]; 93.3% in assay [11]; 112% in assay [12]. Moreover, the growth at 10 µM was 93% in assay [13]; 109% in assay [14]; 91.4% in [15]; 98.3% in assay [16]; 90.2% in assay [17]; 96.5% in [18]. Also, the figures for the growth at 10 µM in assay [19], in assay [20] and in [21] were 75.8%, 88.8% and 101%, respectively.
As for `Cc1nc(Nc2ccc(OCCCBr)cc2)c2c(C)nn(-c3ccccc3)c2n1`, the growth at 10 µM in assay [1] stood at 92%; in assay [2], 74.6%; in [3], 90%; in assay [4] it was 97.5%; in assay [5], 113%; in assay [6] it was 108%. Besides, the growth at 10 µM in assay [7] stood at 107%; in assay [8], 94%; in assay [9], 96.6%; in assay [10] it was 111%; in [11], 105%; in assay [12], 107%. Further, the growth at 10 µM came to 96.1% in [13]; 93.3% in assay [14]; 83% in assay [15]; 107% in assay [16]; 96% in assay [17]; 108% in [18]. Moreover, the growth at 10 µM in assay [19] came to 95.7%; in assay [20] it was 90.3%; in assay [21], 97.3%.
Turning to `Cc1nn(-c2ccccc2)c2ncnc(Nc3ccc(OCCCBr)cc3)c12`, the growth at 10 µM was 83.7% in [1]; 81.4% in [2]; 101% in assay [3]; 99% in assay [4]; 123% in assay [5]; 105% in assay [6]. The growth at 10 µM in assay [7] came to 107%; in [8], 90%; in assay [9], 99.6%; in assay [10] it was 108%; in [11], 115%; in assay [12] it was 106%. Besides, the growth at 10 µM stood at 86.6% in assay [13]; 84.8% in assay [14]; 89.3% in assay [15]; 102% in assay [16]; 81% in assay [17]; 109% in assay [18]. The growth at 10 µM worked out at 92.4% in [19], 93.8% in assay [20] and 111% in assay [21].
